Source: US6737383B1, “Herbicidal oxadiazolidines” (priority 1999, dated 2004)

Columns and labels:
[1] = tested on: blackgrass; test: Test B pre/postemergence blackgrass; assay type: in vivo, Alopecurus myosuroides
Summary of the method: (§1)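 Response is a visual 0-to-10 score relative to untreated plants, where 0 means no effect and 10 means complete control, taken twelve to sixteen days after application. Treatments went onto soil at planting and onto foliage of 1- to 4-leaf plants, using a surfactant-containing non-phytotoxic solvent.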

[2] = tested on: crabgrass; test: Test B pre/postemergence crabgrass; assay type: in vivo, Digitaria sanguinalis
Summary of the method: as §1

[3] = tested on: morningglory; test: Test B pre/postemergence morningglory; assay type: in vivo, Ipomoea hederacea
Summary of the method: as §1

[4] = tested on: bamyardgrass; test: Test B flood test barnyardgrass; assay type: in vivo, Echinochloa crus-galli
Summary of the method: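 Flood test on plants grown to the 2-leaf stage; treated plants kept in greenhouse twelve to sixteen days, then visually rated against controls on a 0 (no effect) to 10 (complete control) scale.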

[5] = tested on: winter wheat; test: Test E winter wheat; assay type: in vivo, Triticum aestivum; conditions: Postemergence
Summary of the method: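 Greenhouse test: for postemergence, foliar application at 1- to 4-leaf stage; compound in non-phytotoxic solvent with surfactant. Rating is visual, relative to untreated controls, about 21 to 28 days after treatment.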

[6] = tested on: blackgrass; test: Test E blackgrass; assay type: in vivo, Alopecurus myosuroides; conditions: Preemergence
[7] = tested on: green foxtail; test: Test E green foxtail; assay type: in vivo, Setaria viridis; conditions: Preemergence
[8] = tested on: Italian ryegrass; test: Test E Italian ryegrass; assay type: in vivo, Lolium multiflorum; conditions: Preemergence
[9] = tested on: winter wheat; test: Test E winter wheat; assay type: in vivo, Triticum aestivum; conditions: Preemergence
[10] = tested on: wild oat; test: Test E wild oat; assay type: in vivo, Avena fatua; conditions: Preemergence
[11] = tested on: winter barley; test: Test E winter barley; assay type: in vivo, Hordeum vulgare; conditions: Preemergence
[12] = Preemergence, Rate 62 g/ha, scale of 0 to 10 where 0 is no effect and 10 is complete control
[13] = Preemergence, Rate 250 g/ha, scale of 0 to 10 where 0 is no effect and 10 is complete control
[14] = Preemergence, Rate 500 g/ha, scale of 0 to 10 where 0 is no effect and 10 is complete control
[15] = Rate 62 g/ha, Postemergence, scale 0 to 10 (0 no effect, 10 complete control)
[16] = Rate 125 g/ha, Postemergence, scale of 0 to 10 where 0 is no effect and 10 is complete control
[17] = Rate 125 g/ha, Preemergence, scale of 0 to 10 where 0 is no effect and 10 is complete control
[18] = Rate 250 g/ha, Postemergence, scale of 0 to 10 where 0 is no effect and 10 is complete control
[19] = Rate 500 g/ha, Postemergence, scale 0 to 10, 0 no effect, 10 complete control
[20] = Rate 125 g/ha, Pre-emergence, flood test species, scale 0 to 10 where 0 is no effect and 10 is complete control
[21] = Rate 250 g/ha, Pre-emergence, flood-test species, scale 0 to 10, 0 is no effect, 10 is complete control
[22] = Rate 500 g/ha, Pre-emergence, flood test species, scale 0 to 10 (0 no effect, 10 complete control)
[23] = Rate 250 g/ha, 0 to 100 scale, 0 is no effect, 100 is complete control
[24] = Rate 500 g/ha, 0 to 100 scale (0 no effect, 100 complete control)
[25] = Rate 1000 g/ha, 0 to 100 scale, 0 no effect, 100 complete control
[26] = Rate 250 g/ha, 0 to 100 scale, 0 no effect, 100 complete control
[27] = Postemergence, Rate 125 g/ha, scale 0 to 10, 0 is no effect, 10 is complete control
[28] = Postemergence, Rate 250 g/ha, scale 0 to 10, 0 is no effect, 10 is complete control
[29] = Preemergence, Rate 62 g/ha, scale 0 to 10 (0 no effect, 10 complete control)
[30] = Rate 62 g/ha, Postemergence, scale of 0 to 10 where 0 is no effect and 10 is complete control
[31] = Rate 125 g/ha, 0 to 100 scale (0 no effect, 100 complete control)

SMILES: CCN(CC)C(=O)n1oc(=O)n(C2CC2)c1=O [Compound 297]
- Blackgrass plant response rating [1, 12]: 0
- Blackgrass plant response rating [1, 13]: 0
- Plant response rating, Blackgrass [1, 14]: 0
- Blackgrass plant response rating [1, 15]: 0
- Blackgrass plant response rating [1, 16]: 0
- Blackgrass plant response rating [1, 17]: 0
- Plant response rating, Blackgrass [1, 18]: 0
- Blackgrass plant response rating [1, 19]: 0
- Crabgrass plant response rating [2, 12]: 0
- Crabgrass plant response rating [2, 13]: 7
- Plant response rating, Crabgrass [2, 14]: 7
- Crabgrass plant response rating [2, 15]: 0
- Crabgrass plant response rating [2, 16]: 0
- Crabgrass plant response rating [2, 17]: 2
- Plant response rating, Crabgrass [2, 18]: 0
- Morningglory plant response rating [3, 12]: 0
- Morningglory plant response rating [3, 13]: 0
- Plant response rating, Morningglory [3, 14]: 0
- Morningglory plant response rating [3, 15]: 0
- Morningglory plant response rating [3, 16]: 0
- Morningglory plant response rating [3, 17]: 0
- Plant response rating, Morningglory [3, 18]: 0
- Barnyardgrass plant response rating ([4]; Rate 62 g/ha, headed Pre-emergence (flood test species), scale 0 to 10 (0 no effect, 10 complete control)): 0
- Barnyardgrass plant response rating [4, 20]: 0
- Barnyardgrass plant response rating [4, 21]: 0
- Barnyardgrass plant response rating [4, 22]: 0
- Plant response rating, Wheat (winter) [5, 23]: 50
- Plant response rating, Wheat (winter) ([5]; Rate 1000 g/ha, 0 to 100 scale where 0 is no effect and 100 is complete control): 70
- Plant response rating, Wheat (winter) ([5]; Rate 500 g/ha, 0 to 100 scale, 0 is no effect, 100 is complete control): 60
- Plant response rating, Blackgrass ([6]; Rate 250 g/ha, 0 to 100 scale): 40
- Plant response rating, Blackgrass [6, 24]: 20
- Plant response rating, Blackgrass [6, 25]: 50
- Plant response rating, Green foxtail ([7]; Rate 250 g/ha, 0 to 100 scale): 60
- Plant response rating, Green foxtail [7, 24]: 60
- Plant response rating, Green foxtail [7, 25]: 60
- Plant response rating, I. Ryegrass ([8]; Rate 250 g/ha, 0 to 100 scale): 60
- Plant response rating, I. Ryegrass [8, 24]: 50
- Plant response rating, I. Ryegrass [8, 25]: 40
- Plant response rating, Wheat (winter) ([9]; Rate 250 g/ha, 0 to 100 scale): 30
- Plant response rating, Wheat (winter) [9, 24]: 60
- Plant response rating, Wheat (winter) [9, 25]: 70
- Plant response rating, Wild oat ([10]; Rate 250 g/ha, 0 to 100 scale): 70
- Plant response rating, Wild oat [10, 24]: 60
- Plant response rating, Wild oat [10, 25]: 70
- Plant response rating, Barley (winter) [11, 26]: 50
- Plant response rating, Barley (winter) [11, 24]: 55
- Plant response rating, Barley (winter) [11, 25]: 60

SMILES: CC(C)N(C(=O)n1oc(=O)n(C(C)CCl)c1=O)c1ccc(F)cc1 (centres unmarked) [Compound 367]
- Plant response rating, Blackgrass [1, 27]: 0
- Plant response rating, Blackgrass [1, 28]: 0
- Plant response rating, Blackgrass [1, 29]: 2
- Blackgrass plant response rating (0 to 10 scale) ([1]; Preemergence, Rate 125 g/ha): 7
- Blackgrass plant response rating [1, 13]: 8
- Blackgrass plant response rating [1, 14]: 10
- Blackgrass plant response rating [1, 30]: 0
- Plant response rating, Blackgrass [1, 19]: 8
- Plant response rating, Crabgrass [2, 27]: 2
- Plant response rating, Crabgrass [2, 28]: 8
- Plant response rating, Crabgrass [2, 29]: 6
- Crabgrass plant response rating (0 to 10 scale) ([2]; Preemergence, Rate 125 g/ha): 9
- Crabgrass plant response rating [2, 13]: 10
- Crabgrass plant response rating [2, 14]: 10
- Crabgrass plant response rating [2, 30]: 0
- Plant response rating, Crabgrass [2, 19]: 8
- Plant response rating, Morningglory [3, 27]: 5
- Plant response rating, Morningglory [3, 28]: 6
- Plant response rating, Morningglory [3, 29]: 0
- Morningglory plant response rating (0 to 10 scale) ([3]; Preemergence, Rate 125 g/ha): 0
- Morningglory plant response rating [3, 13]: 0
- Morningglory plant response rating [3, 14]: 2
- Morningglory plant response rating [3, 30]: 5
- Plant response rating, Morningglory [3, 19]: 7
- Plant response rating, Barnyardgrass (0 to 10 scale, 0 is no effect, 10 is complete control) ([4]; Rate 62 g/ha, flood test species, Pre-emergence, visual evaluation after twelve to sixteen days): 0
- Barnyardgrass plant response rating [4, 20]: 0
- Barnyardgrass plant response rating [4, 21]: 0
- Barnyardgrass plant response rating [4, 22]: 0
- Plant response rating, Wheat (winter) ([5]; Rate 125 g/ha, 0 to 100 scale, 0 is no effect, 100 is complete control): 50
- Plant response rating, Wheat (winter) [5, 23]: 40
- Plant response rating, Blackgrass [6, 31]: 60
- Plant response rating, Blackgrass ([6]; Rate 250 g/ha, 0 to 100 scale): 30
- Plant response rating, Green foxtail [7, 31]: 70
- Plant response rating, Green foxtail ([7]; Rate 250 g/ha, 0 to 100 scale): 50
- Plant response rating, I. Ryegrass [8, 31]: 60
- Plant response rating, I. Ryegrass ([8]; Rate 250 g/ha, 0 to 100 scale): 60
- Plant response rating, Wheat (winter) [9, 31]: 60
- Plant response rating, Wheat (winter) ([9]; Rate 250 g/ha, 0 to 100 scale): 40
- Plant response rating, Wild oat [10, 31]: 55
- Plant response rating, Wild oat ([10]; Rate 250 g/ha, 0 to 100 scale): 50
- Plant response rating, Barley (winter) [11, 31]: 20
- Plant response rating, Barley (winter) [11, 26]: 30
